Invasion inhibition rate data for three substances are collected here from patent publication US12565522B2, “Micropeptide HMMW and application thereof” (NANJING ANJI BIOTECHNOLOGY CO., LTD., priority 2019, dated 2026).

No end group written: not given here.

Common to all, as to test: Matrigel transwell invasion test
Common to all, as to format: cell-based, human
Details in all cases: 24 h

In experiment [1] the test system is A431 cells of skin cancer. How it is done: (§1) Dilute 10 mg/mL Matrigel with culture medium at 1:3, spread it on membranes of transwell cells and dry it in the air at room temperature. Use trypsin to digest and collect SCC4 cells of head and neck cancer, SW579 cells of thyroid cancer, A549 cells of lung cancer, TE13 cells of esophageal squamous cell carcinoma, MGC803 cells of stomach cancer, MDA-MB-231 cells of breast cancer, UOK262 cells of kidney cancer, and A431 cells of skin cancer of human, which were cultured to the logarithmic phase, wash with PBS twice and re-suspend with a blank culture medium. Adjust cell concentration to 1×10^5 cells/mL. Inoculate the cells to transwell cells, 100 μL per well, and meanwhile add micropeptides HMMW I to IX at different doses to every cell. Add 0.6 mL of complete medium containing 10% FBS to the transwell cells to stimulate cell invasion, and culture in 5% CO2 at 37 DEG C. for 24 h. Discard the medium in the wells, fix with 90% alcohol at room temperature for 30 min, stain with 0.1% crystal violet at room temperature for 10 min, rinse with clear water, gently wipe off the non-invaded cells in the upper layer with a cotton swab, observe under a microscope and select four fields of view to take pictures and count. Calculate the invasion inhibition rate (IIR) of the cells according to the following formula:
(§2) [formula] where Ntest is the number of invaded cells in the test groups (the groups at a dose of 1, 4 or 16 μM in the table), Ncontrol is the number of invaded cells in the blank control groups (the groups at a dose of 0 μM in the table). The test was repeated independently three times. Mean±SD was calculated based on the test results. Statistical t test was done. Value P was used to express statistical difference. The statistical significance of the results is a method for estimating how true the results are (the totality can be represented), *P<0.05 means significant difference, and **P<0.01 means very significant difference.

The subject of experiment [2] is MGC803 cells of stomach cancer. How it is done: as §1, §2
The subject of experiment [3] is TE13 cells of esophageal squamous cell carcinoma. As for the experimental part: as §1, §2
Experiment [4] relates to MDA-MB-231 cells of breast cancer. As for the experimental part: as §1, §2
Experiment [5] concerns A549 cells of lung cancer. As for the experimental part: as §1, §2
In experiment [6] the test system is SW579 cells of thyroid cancer. How it is done: as §1, §2
For experiment [7], the system named is UOK262 cells of kidney cancer. As for the experimental part: as §1, §2
Experiment [8] relates to SCC4 cells of head and neck cancer. How it is done:
as §1, §2

Turning to “MGSTGVPGFSPRRSSVEAKMQSTSCSVRKSSTVTAWPAVVLLLSWGQRRGG-OH [HMMW-VII]”, the invasion inhibition rate in experiment [1] (dose 1 μM) was found to be 34.70%; in experiment [1] (dose 4 μM), 55.51%; in experiment [1] (dose 16 μM), 69.24%; in experiment [2] (dose 1 μM) it was 29.50%; in experiment [2] (dose 4 μM), 54.34%; in experiment [2] (dose 16 μM) it was 69.57%. Further, the invasion inhibition rate is 25.11% in experiment [3] (dose 1 μM); 45.36% in experiment [3] (dose 4 μM); 67.52% in experiment [3] (dose 16 μM); 27.91% in experiment [4] (dose 1 μM); 49.55% in experiment [4] (dose 4 μM); 74.32% in experiment [4] (dose 16 μM). The invasion inhibition rate in experiment [5] (dose 1 μM) was 32.22%; in experiment [5] (dose 4 μM) it was 52.42%; in experiment [5] (dose 16 μM) it was 64.02%; in experiment [6] (dose 1 μM) it was 20.11%; in experiment [6] (dose 4 μM) it was 43.72%; in experiment [6] (dose 16 μM), 63.71%. Also, the invasion inhibition rate came to 36.74% in experiment [7] (dose 1 μM); 56.26% in experiment [7] (dose 4 μM); 67.62% in experiment [7] (dose 16 μM); 19.70% in experiment [8] (dose 1 μM); 43.11% in experiment [8] (dose 4 μM); 70.84% in experiment [8] (dose 16 μM).

Turning to “MGSTYNKRHSPRRSSVEAKMQSTSCSVRKSSTVTAWPAVVLLLSWGQRRGG-OH [HMMW-III]”, the invasion inhibition rate in experiment [1] (dose 1 μM) came to 33.70%; in experiment [1] (dose 4 μM) it was 53.21%; in experiment [1] (dose 16 μM), 67.33%; in experiment [2] (dose 1 μM), 25.11%; in experiment [2] (dose 4 μM), 53.38%; in experiment [2] (dose 16 μM) it was 67.61%. Also, the invasion inhibition rate was determined as 21.23% in experiment [3] (dose 1 μM); 41.81% in experiment [3] (dose 4 μM); 63.31% in experiment [3] (dose 16 μM); 28.91% in experiment [4] (dose 1 μM); 49.82% in experiment [4] (dose 4 μM); 68.36% in experiment [4] (dose 16 μM). The invasion inhibition rate in experiment [5] (dose 1 μM) worked out at 32.13%; in experiment [5] (dose 4 μM) it was 52.30%; in experiment [5] (dose 16 μM) it was 66.09%; in experiment [6] (dose 1 μM) it was 18.63%; in experiment [6] (dose 4 μM) it was 42.76%; in experiment [6] (dose 16 μM), 63.89%. Further, the invasion inhibition rate worked out at 34.37% in experiment [7] (dose 1 μM); 55.15% in experiment [7] (dose 4 μM); 67.23% in experiment [7] (dose 16 μM); 22.75% in experiment [8] (dose 1 μM); 48.24% in experiment [8] (dose 4 μM); 75.84% in experiment [8] (dose 16 μM).

On to “MGSTYNPGFSPRRSSVEAKMQSTSCSVRKSSTVTAWPAVVLLLSWGQRRGG-OH [HMMW-V]”, for which the invasion inhibition rate in experiment [1] (dose 1 μM) was 32.19%; in experiment [1] (dose 4 μM), 51.35%; in experiment [1] (dose 16 μM), 69.29%; in experiment [2] (dose 1 μM), 26.53%; in experiment [2] (dose 4 μM), 50.24%; in experiment [2] (dose 16 μM), 68.38%. Moreover, the invasion inhibition rate in experiment [3] (dose 1 μM) was 20.29%; in experiment [3] (dose 4 μM), 42.74%; in experiment [3] (dose 16 μM), 66.69%; in experiment [4] (dose 1 μM), 27.25%; in experiment [4] (dose 4 μM) it was 48.37%; in experiment [4] (dose 16 μM) it was 70.50%. Besides, the invasion inhibition rate in experiment [5] (dose 1 μM) is reported as 31.19%; in experiment [5] (dose 4 μM) it was 51.27%; in experiment [5] (dose 16 μM), 64.25%; in experiment [6] (dose 1 μM), 19.09%; in experiment [6] (dose 4 μM), 44.23%; in experiment [6] (dose 16 μM) it was 64.14%. Also, the invasion inhibition rate in experiment [7] (dose 1 μM) came out at 33.43%; in experiment [7] (dose 4 μM), 53.27%; in experiment [7] (dose 16 μM), 66.14%; in experiment [8] (dose 1 μM), 20.34%; in experiment [8] (dose 4 μM) it was 46.26%; in experiment [8] (dose 16 μM), 74.71%.
